22 compounds from ChEMBL document CHEMBL5550132, “Structure-activity relationship in NOD2 agonistic muramyl dipeptides” (Eur J Med Chem, 2024) can be followed below.

What all share (assay type): cell-based
What all share (settings): filed as activator

Assay [1] addresses Nucleotide-binding oligomerization domain-containing protein 2 (Homo sapiens, UniProt Q9HC29). The assay can be described thus: Activation of NOD2 in HEK293T cells.
For assay [2], the target named is T1, Nuclear factor NF-kappa-B complex (Homo sapiens) (UniProt Q00653+P19838+Q04206). The assay can be described thus: Activation of NF-kappaB in HEK-Blue hNOD2 cells assessed as fold change at 1000 nM incubated for 48 hrs by SEAP reporter assay.
Assay [3] addresses T1, Nuclear factor NF-kappa-B complex (Homo sapiens). The assay can be described thus: Activation of NF-kappaB in HEK-Blue hNOD2 cells assessed as fold change at 10 nM incubated for 48 hrs by SEAP reporter assay. For orientation: A reporter such as luciferase makes a cellular process visible.
For assay [4] the target is unchanged. The assay can be described thus: Activation of NF-kappaB in HEK-Blue hNOD2 cells assessed as fold change at 100 nM incubated for 48 hrs by SEAP reporter assay.
Assay [5] has the same target. The assay can be described thus: Activation of NF-KappaB (unknown origin) expressed in HEK293T cells assessed as fold change at 20 uM.

T1 sequence (P19838 whole entry, looked up): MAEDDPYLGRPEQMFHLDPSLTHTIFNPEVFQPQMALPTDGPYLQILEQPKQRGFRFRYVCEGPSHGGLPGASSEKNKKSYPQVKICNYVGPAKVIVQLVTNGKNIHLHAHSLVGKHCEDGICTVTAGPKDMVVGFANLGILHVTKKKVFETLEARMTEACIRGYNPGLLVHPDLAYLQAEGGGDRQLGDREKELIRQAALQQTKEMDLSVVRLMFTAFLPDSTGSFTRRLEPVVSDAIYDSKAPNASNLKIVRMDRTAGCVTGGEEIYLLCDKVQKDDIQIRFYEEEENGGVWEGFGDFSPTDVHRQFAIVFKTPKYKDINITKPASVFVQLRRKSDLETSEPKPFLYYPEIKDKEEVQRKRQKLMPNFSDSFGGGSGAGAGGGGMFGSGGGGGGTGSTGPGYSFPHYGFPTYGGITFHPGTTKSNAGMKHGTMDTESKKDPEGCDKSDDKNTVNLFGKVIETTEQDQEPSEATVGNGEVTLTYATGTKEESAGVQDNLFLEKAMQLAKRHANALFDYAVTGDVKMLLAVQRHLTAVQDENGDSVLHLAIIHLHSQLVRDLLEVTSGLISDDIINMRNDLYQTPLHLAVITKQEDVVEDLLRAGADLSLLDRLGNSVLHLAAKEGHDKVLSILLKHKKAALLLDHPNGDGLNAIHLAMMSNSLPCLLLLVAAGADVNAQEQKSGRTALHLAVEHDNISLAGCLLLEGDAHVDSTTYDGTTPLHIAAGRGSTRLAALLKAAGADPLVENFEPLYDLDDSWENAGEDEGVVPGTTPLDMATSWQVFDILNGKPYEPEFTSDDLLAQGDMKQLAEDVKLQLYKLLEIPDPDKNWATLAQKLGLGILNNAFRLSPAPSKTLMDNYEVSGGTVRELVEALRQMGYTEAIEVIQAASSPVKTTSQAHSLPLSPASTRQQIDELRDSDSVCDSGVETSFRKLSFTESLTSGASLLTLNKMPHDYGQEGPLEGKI
T1 sequence (Q00653 whole entry, looked up): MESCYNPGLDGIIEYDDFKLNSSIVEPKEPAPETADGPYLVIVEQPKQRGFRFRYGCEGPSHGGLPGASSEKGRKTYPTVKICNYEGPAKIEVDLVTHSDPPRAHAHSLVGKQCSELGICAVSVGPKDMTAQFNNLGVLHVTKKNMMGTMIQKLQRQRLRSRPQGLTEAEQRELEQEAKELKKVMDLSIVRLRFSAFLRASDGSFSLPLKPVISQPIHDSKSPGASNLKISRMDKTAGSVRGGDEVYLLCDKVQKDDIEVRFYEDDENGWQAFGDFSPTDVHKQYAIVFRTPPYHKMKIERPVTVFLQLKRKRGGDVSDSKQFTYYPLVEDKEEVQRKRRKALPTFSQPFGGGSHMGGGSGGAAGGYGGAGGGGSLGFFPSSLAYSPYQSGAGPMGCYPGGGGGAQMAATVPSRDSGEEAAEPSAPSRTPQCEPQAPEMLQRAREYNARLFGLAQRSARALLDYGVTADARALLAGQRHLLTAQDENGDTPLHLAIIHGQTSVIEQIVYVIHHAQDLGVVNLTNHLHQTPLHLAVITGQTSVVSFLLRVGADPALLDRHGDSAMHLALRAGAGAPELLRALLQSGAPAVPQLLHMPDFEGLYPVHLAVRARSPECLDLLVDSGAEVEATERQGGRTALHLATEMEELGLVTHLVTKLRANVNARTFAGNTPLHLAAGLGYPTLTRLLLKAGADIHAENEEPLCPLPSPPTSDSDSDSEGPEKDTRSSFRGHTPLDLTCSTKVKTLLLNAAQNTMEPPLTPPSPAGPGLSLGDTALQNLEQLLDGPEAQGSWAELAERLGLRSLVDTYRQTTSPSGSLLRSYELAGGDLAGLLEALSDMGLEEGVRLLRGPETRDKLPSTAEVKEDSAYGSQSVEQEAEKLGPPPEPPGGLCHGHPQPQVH
T1 sequence (Q04206 whole entry, looked up): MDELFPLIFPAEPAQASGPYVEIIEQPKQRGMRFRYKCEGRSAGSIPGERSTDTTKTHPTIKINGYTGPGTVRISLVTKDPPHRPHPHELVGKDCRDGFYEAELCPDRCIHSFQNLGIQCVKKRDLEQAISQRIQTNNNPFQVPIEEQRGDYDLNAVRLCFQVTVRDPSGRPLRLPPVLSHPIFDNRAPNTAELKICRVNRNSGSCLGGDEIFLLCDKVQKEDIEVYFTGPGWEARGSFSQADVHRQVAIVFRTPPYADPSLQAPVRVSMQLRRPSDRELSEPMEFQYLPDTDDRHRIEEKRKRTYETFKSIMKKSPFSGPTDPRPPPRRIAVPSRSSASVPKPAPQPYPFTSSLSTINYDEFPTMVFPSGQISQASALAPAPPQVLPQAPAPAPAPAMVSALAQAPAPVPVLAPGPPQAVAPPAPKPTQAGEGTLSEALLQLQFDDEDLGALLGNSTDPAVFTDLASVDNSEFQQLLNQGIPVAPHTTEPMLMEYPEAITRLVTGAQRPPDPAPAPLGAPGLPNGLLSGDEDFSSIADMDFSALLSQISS
Chain of Nucleotide-binding oligomerization domain-containing protein 2 (Q9HC29 whole entry, the tested form may be a part): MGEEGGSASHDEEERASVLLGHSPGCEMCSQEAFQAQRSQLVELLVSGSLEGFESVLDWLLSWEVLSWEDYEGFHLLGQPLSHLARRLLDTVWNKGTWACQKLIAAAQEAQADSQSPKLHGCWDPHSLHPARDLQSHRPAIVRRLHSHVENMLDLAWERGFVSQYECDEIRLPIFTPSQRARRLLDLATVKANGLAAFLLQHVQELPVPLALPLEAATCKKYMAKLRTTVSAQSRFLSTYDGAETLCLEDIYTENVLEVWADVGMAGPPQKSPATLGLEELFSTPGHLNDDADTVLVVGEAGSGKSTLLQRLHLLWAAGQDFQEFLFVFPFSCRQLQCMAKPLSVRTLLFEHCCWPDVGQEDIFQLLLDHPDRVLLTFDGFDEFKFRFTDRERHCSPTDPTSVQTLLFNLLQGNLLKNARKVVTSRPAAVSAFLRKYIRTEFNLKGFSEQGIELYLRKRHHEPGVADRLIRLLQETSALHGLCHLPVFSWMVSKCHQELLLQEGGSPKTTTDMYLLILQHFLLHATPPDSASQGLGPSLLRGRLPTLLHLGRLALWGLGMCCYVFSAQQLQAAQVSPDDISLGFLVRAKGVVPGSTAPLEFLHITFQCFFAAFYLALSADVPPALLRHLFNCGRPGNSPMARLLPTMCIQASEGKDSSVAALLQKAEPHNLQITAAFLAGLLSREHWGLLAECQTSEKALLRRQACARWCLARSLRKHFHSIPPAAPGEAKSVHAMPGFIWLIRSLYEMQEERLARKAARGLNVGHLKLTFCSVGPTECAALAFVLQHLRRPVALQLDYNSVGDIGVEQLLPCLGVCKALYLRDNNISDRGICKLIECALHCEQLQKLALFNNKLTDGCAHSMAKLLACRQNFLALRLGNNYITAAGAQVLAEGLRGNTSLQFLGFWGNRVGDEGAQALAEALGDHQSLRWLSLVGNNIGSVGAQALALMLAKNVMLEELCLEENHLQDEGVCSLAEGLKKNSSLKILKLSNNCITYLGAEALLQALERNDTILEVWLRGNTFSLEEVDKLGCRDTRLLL

`CCO[C@@H]1O[C@H](CO)[C@@H](O[C@@H]2O[C@H](CO)[C@@H](O[C@@H]3O[C@H](CO)[C@@H](O[C@@H]4O[C@H](CO)[C@@H](O)[C@H](O[C@H](C)C(=O)N[C@@H](C)C(=O)N[C@H](CCC(=O)O)C(N)=O)[C@H]4NC(C)=O)[C@H](O)[C@H]3NC(C)=O)[C@H](O[C@H](C)C(=O)N[C@@H](C)C(=O)N[C@H](CCC(=O)O)C(N)=O)[C@H]2NC(C)=O)[C@H](O)[C@H]1NC(C)=O`: the Activity in assay [1] amounted to 800 mU.

Consider `COc1cccc(-c2cn([C@H]3[C@H](O[C@H](C)C(=O)N[C@@H](C)C(=O)N[C@H](CCC(=O)O)C(N)=O)[C@@H](NC(C)=O)[C@H](O)O[C@@H]3CO)nn2)c1`, for which the fold change (FC) was 1 in assay [2], 1.1 in assay [3] and 1.05 in assay [4].

In the case of `CC(=O)N[C@@H]1[C@@H](O[C@H](C)C(=O)N[C@@H](C)C(=O)N[C@H](CCC(=O)O)C(N)=O)[C@H](n2cc(CNC(=O)Cc3ccc(C(F)(F)F)cc3)nn2)[C@@H](CO)O[C@H]1O`, the fold change (FC) in assay [2] came out at 1.35; in assay [3], 1.15; in assay [4], 1.1.

On to `CC(=O)N[C@@H]1[C@@H](O)[C@H](O[C@@H]2O[C@H](CO)[C@@H](O)[C@H](O[C@H](C)C(=O)N[C@@H](C)C(=O)N[C@H](CCC(=O)O)C(N)=O)[C@H]2NC(C)=O)[C@@H](CO)O[C@H]1O`, for which, in assay [1], the Activity is 900 mU.

Regarding `C[C@H](NC(=O)[C@@H](C)O[C@H]1[C@H](O)[C@@H](CO)O[C@@H](O)[C@@H]1NOC(=O)CCCC[C@@H]1SC[C@@H]2NC(=O)N[C@@H]21)C(=O)N[C@H](CCC(=O)O)C(N)=O`, the fold change (FC) in assay [5] turned out to be 2.5.

With `CCCCCCCCOC(=O)CC[C@@H](NC(=O)[C@H](C)NC(=O)[C@@H](C)O[C@H]1[C@H](O)[C@@H](CO)O[C@@H](OCc2ccccc2)[C@@H]1N=[N+]=[N-])C(N)=O`, the fold change (FC) in assay [5] is 0.04.

On to `COC(=O)CCC(=O)N[C@@H]1[C@@H](O[C@H](C)C(=O)N[C@@H](C)C(=O)N[C@H](CCC(=O)O)C(N)=O)[C@H](O)[C@@H](CO)O[C@H]1O`, for which the fold change (FC) in assay [5] came to 2.4.

As to `C[C@H](NC(=O)[C@@H](C)O[C@H]1[C@H](O)[C@@H](CO)O[C@@H](OCc2ccccc2)[C@@H]1N=[N+]=[N-])C(=O)N[C@H](CCC(=O)OCc1ccccc1)C(N)=O`, the fold change (FC) in assay [5] was 0.11.

In the case of `C[C@H](NC(=O)[C@@H](C)O[C@H]1[C@H](O)[C@@H](CO)O[C@@H](O)[C@@H]1NC(=O)CCC(=O)O)C(=O)N[C@H](CCC(=O)O)C(N)=O`, the fold change (FC) in assay [5] was found to be 2.3.

As for `CNCc1cn([C@H]2[C@H](O[C@H](C)C(=O)N[C@@H](C)C(=O)N[C@H](CCC(=O)O)C(N)=O)[C@@H](NC(C)=O)[C@H](O)O[C@@H]2CO)nn1`, the fold change (FC) was determined as 1 in assay [2], 1.1 in assay [3] and 1.05 in assay [4].

For the compound `CCCCCCCCCCCCCCOC(=O)CC[C@@H](NC(=O)[C@H](C)NC(=O)[C@@H](C)O[C@H]1[C@H](O)[C@@H](CO)O[C@@H](OCc2ccccc2)[C@@H]1N=[N+]=[N-])C(N)=O`, the fold change (FC) in assay [5] turned out to be 0.04.

For the compound `COc1ccc(CC(=O)NCc2cn([C@H]3[C@H](O[C@H](C)C(=O)N[C@@H](C)C(=O)N[C@H](CCC(=O)O)C(N)=O)[C@@H](NC(C)=O)[C@H](OCc4ccccc4)O[C@@H]3CO)nn2)cc1`, the results for the fold change (FC) in assay [2], in assay [3] and in assay [4] were 1.2, 1.1 and 1.05, respectively.

Take `CCO[C@@H]1O[C@H](CO)[C@@H](O[C@@H]2O[C@H](CO)[C@@H](O[C@@H]3O[C@H](CO)[C@@H](O[C@@H]4O[C@H](CO)[C@@H](O)[C@H](O[C@H](C)C(=O)N[C@@H](C)C(=O)N[C@H](CCC(=O)N[C@@H](CCCCN)C(=O)O)C(N)=O)[C@H]4NC(C)=O)[C@H](O)[C@H]3NC(C)=O)[C@H](O[C@H](C)C(=O)N[C@@H](C)C(=O)N[C@H](CCC(=O)N[C@@H](CCCCN)C(=O)O)C(N)=O)[C@H]2NC(C)=O)[C@H](O)[C@H]1NC(C)=O`: in assay [1], the Activity came out at 30 mU.

As to `C[C@H](NC(=O)[C@@H](C)O[C@H]1[C@H](O)[C@@H](CO)O[C@@H](OCc2ccccc2)[C@@H]1N=[N+]=[N-])C(=O)N[C@H](CCC(=O)O)C(N)=O`, in assay [5], the fold change (FC) amounted to 0.08.

The compound `CCO[C@@H]1O[C@H](CO)[C@@H](O[C@@H]2O[C@H](CO)[C@@H](O[C@@H]3O[C@H](CO)[C@@H](O[C@@H]4O[C@H](CO)[C@@H](O)[C@H](O[C@H](C)C(=O)N[C@@H](C)C(=O)N[C@H](CCC(=O)N[C@@H](CCCCN)C(=O)O)C(N)=O)[C@H]4NC(C)=O)[C@H](O)[C@H]3NC(C)=O)[C@H](O)[C@H]2NC(C)=O)[C@H](O[C@H](C)C(=O)N[C@@H](C)C(=O)N[C@H](CCC(=O)N[C@@H](CCCCN)C(=O)O)C(N)=O)[C@H]1NC(C)=O` displayed an Activity in assay [1] of 0.5 mU.

As to `CC(=O)N[C@H]1[C@H](OCc2ccccc2)O[C@H](CO)[C@@H](N)[C@@H]1O[C@H](C)C(=O)N[C@@H](C)C(=O)N[C@H](CCC(=O)O)C(N)=O`, the fold change (FC) in assay [2] was found to be 1.35; in assay [3], 1.1; in assay [4] it was 1.2.

Consider `CCO[C@@H]1O[C@H](CO)[C@@H](O[C@@H]2O[C@H](CO)[C@@H](O[C@@H]3O[C@H](CO)[C@@H](O[C@@H]4O[C@H](CO)[C@@H](O)[C@H](O[C@H](C)C(=O)N[C@@H](C)C(=O)N[C@H](CCC(=O)N[C@@H](CCCCN)C(=O)N[C@H](C)C(=O)N[C@H](C)C(=O)O)C(N)=O)[C@H]4NC(C)=O)[C@H](O)[C@H]3NC(C)=O)[C@H](O[C@H](C)C(=O)N[C@@H](C)C(=O)N[C@H](CCC(=O)N[C@@H](CCCCN)C(=O)N[C@H](C)C(=O)N[C@H](C)C(=O)O)C(N)=O)[C@H]2NC(C)=O)[C@H](O)[C@H]1NC(C)=O`, for which the Activity in assay [1] is 12.5 mU.

Turning to `COc1ccc(CC(=O)NCc2cn([C@H]3[C@H](O[C@H](C)C(=O)N[C@@H](C)C(=O)N[C@H](CCC(=O)O)C(N)=O)[C@@H](NC(C)=O)[C@H](O)O[C@@H]3CO)nn2)cc1`, the fold change (FC) came out at 1.55 in assay [2], 1.1 in assay [3] and 1.15 in assay [4].

Consider `CC(=O)N[C@@H]1[C@@H](O[C@H](C)C(=O)N[C@@H](C)C(=O)N[C@H](CCC(=O)O)C(N)=O)[C@H](O[C@@H]2O[C@H](CO)[C@@H](O)[C@H](O)[C@H]2NC(C)=O)[C@@H](CO)O[C@H]1O`, for which the Activity in assay [1] was 1000 mU.

`CCO[C@@H]1O[C@H](CO)[C@@H](O[C@@H]2O[C@H](CO)[C@@H](O[C@@H]3O[C@H](CO)[C@@H](O[C@@H]4O[C@H](CO)[C@@H](O)[C@H](O[C@H](C)C(=O)N[C@@H](C)C(=O)N[C@H](CCC(=O)N[C@@H](CCCCN)C(=O)N[C@H](C)C(=O)O)C(N)=O)[C@H]4NC(C)=O)[C@H](O)[C@H]3NC(C)=O)[C@H](O)[C@H]2NC(C)=O)[C@H](O[C@H](C)C(=O)N[C@@H](C)C(=O)N[C@H](CCC(=O)N[C@@H](CCCCN)C(=O)N[C@H](C)C(=O)O)C(N)=O)[C@H]1NC(C)=O` yielded an Activity in assay [1] of 0.09 mU.

In assay [1], `CC(=O)N[C@@H]1[C@@H](O)[C@H](O[C@@H]2O[C@H](CO)[C@@H](O)[C@H](O[C@H](C)C(=O)N[C@@H](C)C(=O)N[C@H](CCC(=O)N[C@@H](CCCCN)C(=O)O)C(N)=O)[C@H]2NC(C)=O)[C@@H](CO)O[C@H]1O` returned an Activity of 100 mU.

`CCO[C@@H]1O[C@H](CO)[C@@H](O[C@@H]2O[C@H](CO)[C@@H](O[C@@H]3O[C@H](CO)[C@@H](O[C@@H]4O[C@H](CO)[C@@H](O)[C@H](O)[C@H]4NC(C)=O)[C@H](O[C@H](C)C(=O)N[C@@H](C)C(=O)N[C@H](CCC(=O)O)C(N)=O)[C@H]3NC(C)=O)[C@H](O)[C@H]2NC(C)=O)[C@H](O[C@H](C)C(=O)N[C@@H](C)C(=O)N[C@H](CCC(=O)O)C(N)=O)[C@H]1NC(C)=O` gave an Activity in assay [1] of 80 mU.
